± gives the expanded uncertainty stated by the source.
Key:
[1] = xn = mol fraction of the nth substance listed; conditions: 298.15 K, 101 kPa, Liquid, Vibrating tube method
[2] = 298.15 K; 101 kPa; Liquid; Vibrating tube method

## CCCCN [1-butanamine] + CCCCCl
[1]; x2 = 0
  mass density: 734.65 ± 0.21 kg/m3
[1]; x2 = 0.0428
  mass density: 740.64 ± 0.21 kg/m3
[1]; x2 = 0.0758
  mass density: 745.29 ± 0.21 kg/m3
[1]; x2 = 0.1564
  mass density: 756.7 ± 0.2 kg/m3
[1]; x2 = 0.2259
  mass density: 766.61 ± 0.2 kg/m3
[1]; x2 = 0.3163
  mass density: 779.6 ± 0.19 kg/m3
[1]; x2 = 0.3765
  mass density: 788.3 ± 0.19 kg/m3
[1]; x2 = 0.4412
  mass density: 797.66 ± 0.19 kg/m3
[1]; x2 = 0.4959
  mass density: 805.59 ± 0.18 kg/m3
[1]; x2 = 0.5804
  mass density: 817.91 ± 0.18 kg/m3
[1]; x2 = 0.6566
  mass density: 829.09 ± 0.17 kg/m3
[1]; x2 = 0.7272
  mass density: 839.52 ± 0.17 kg/m3
[1]; x2 = 0.7794
  mass density: 847.26 ± 0.17 kg/m3
[1]; x2 = 0.8465
  mass density: 857.31 ± 0.16 kg/m3
[1]; x2 = 0.8923
  mass density: 864.25 ± 0.16 kg/m3
[1]; x2 = 0.9437
  mass density: 872.12 ± 0.16 kg/m3

## CC(C)CO [2-methyl-1-propanol] + CCCCN
[1]; x2 = 0
  mass density: 797.84 ± 0.31 kg/m3

## CC(C)CO [2-methyl-1-propanol] + CCCCCl
[1]; x2 = 0
  mass density: 797.84 ± 0.31 kg/m3

## CCCCCl [1-chlorobutane]
[2]
  mass density: 880.86 ± 0.15 kg/m3

## CCCCCl [1-chlorobutane] + CC(C)CO
[1]; x1 = 0.037
  mass density: 801.07 ± 0.3 kg/m3
[1]; x1 = 0.0748
  mass density: 804.35 ± 0.29 kg/m3
[1]; x1 = 0.1521
  mass density: 811.04 ± 0.28 kg/m3
[1]; x1 = 0.2331
  mass density: 817.97 ± 0.27 kg/m3
[1]; x1 = 0.3472
  mass density: 827.62 ± 0.25 kg/m3
[1]; x1 = 0.4266
  mass density: 834.27 ± 0.23 kg/m3
[1]; x1 = 0.4911
  mass density: 839.59 ± 0.22 kg/m3
[1]; x1 = 0.5817
  mass density: 847.01 ± 0.21 kg/m3
[1]; x1 = 0.6178
  mass density: 849.95 ± 0.2 kg/m3
[1]; x1 = 0.6855
  mass density: 855.42 ± 0.19 kg/m3
[1]; x1 = 0.7946
  mass density: 864.22 ± 0.18 kg/m3
[1]; x1 = 0.8885
  mass density: 871.78 ± 0.17 kg/m3
[1]; x1 = 0.9428
  mass density: 876.18 ± 0.16 kg/m3
[1]; x1 = 1
  mass density: 880.86 ± 0.15 kg/m3

## CCCCCl [1-chlorobutane] + CCCCN
[1]; x1 = 1
  mass density: 880.86 ± 0.15 kg/m3

## CCCCN [1-butanamine] + CC(C)CO
[1]; x1 = 0.0482
  mass density: 796.16 ± 0.3 kg/m3
[1]; x1 = 0.0921
  mass density: 794.54 ± 0.29 kg/m3
[1]; x1 = 0.1855
  mass density: 790.79 ± 0.28 kg/m3
[1]; x1 = 0.2961
  mass density: 785.62 ± 0.26 kg/m3
[1]; x1 = 0.3674
  mass density: 781.71 ± 0.25 kg/m3
[1]; x1 = 0.4578
  mass density: 776.31 ± 0.25 kg/m3
[1]; x1 = 0.5021
  mass density: 773.52 ± 0.24 kg/m3
[1]; x1 = 0.5502
  mass density: 770.4 ± 0.24 kg/m3
[1]; x1 = 0.6313
  mass density: 764.59 ± 0.23 kg/m3
[1]; x1 = 0.7237
  mass density: 757.45 ± 0.22 kg/m3
[1]; x1 = 0.8191
  mass density: 749.75 ± 0.22 kg/m3
[1]; x1 = 0.9098
  mass density: 742.18 ± 0.21 kg/m3
[1]; x1 = 0.9418
  mass density: 739.52 ± 0.21 kg/m3
[1]; x1 = 1
  mass density: 734.65 ± 0.21 kg/m3

## CCCCN [1-butanamine]
[2]
  mass density: 734.65 ± 0.21 kg/m3

## CC(C)CO [2-methyl-1-propanol]
[2]
  mass density: 797.84 ± 0.31 kg/m3
